Experimental data reported in US20090092642A1, “Skin and/or Hair Products, Containing Compounds With an Isoprenoid Structure” (BEIERSDORF AG, priority 2004, published 2009).

Test system: primary normal human melanocytes
Assay: Melanogenesis assay (14C-tyrosine incorporation) after 3 days of incubation with test substance
Type: cell-based
Details: 3 days incubation
Description: A melanogenesis assay was carried out after 3 days of incubation of primary normal human melanocytes with test substance compared to control. The figures listed in the table give the melanogenesis rates (measured as ^14C-tyrosine incorporation) based on the untreated control (=100%). It results from this that the melanogenesis, i.e., the process of melanine synthesis rises to 217%, 128% or 121%, when the melanocytes are cultivated in the presence of the (2E/Z,6E/Z)-3,7,11-trimethyldodeca-2,6,10-trienal (n=3).
A melanogenesis assay was carried out after 3 days of incubation of primary normal human melanocytes with test substance compared to control. The figures listed in the table give the melanogenesis rates (measured as ^14C-tyrosine incorporation) based on the untreated control (=100%). It results from this that the melanogenesis, i.e., the process of melanine synthesis rises to 135% or 113% when the melanocytes are cultivated in the presence of the N-[(1E/Z,2E/Z)-3,7-dimethylocta-2,6-dien-1-ylidene]butane-1-amine (n=2).
A melanogenesis assay was carried out after 3 days of incubation of primary normal human melanocytes with test substance compared to control. The figures listed in the table give the melanogenesis rates (measured as ^14C-tyrosine incorporation) based on the untreated control (=100%). It results from this that the melanogenesis, i.e., the process of melanine synthesis rises to 137% or 127% when the melanocytes are cultivated in the presence of the (2E/Z)-3,7-dimethylocta-2,6-dienal (n=2-6).
A melanogenesis assay was carried out after 3 days of incubation of primary normal human melanocytes with test substance compared to control. The figures listed in the table give the melanogenesis rates (measured as ^14C-tyrosine incorporation) based on the untreated control (=100%). It results from this that the melanogenesis, i.e., the process of melanine synthesis rises to 131%, 130% or 117% when the melanocytes are cultivated in the presence of the (1E/Z,2E/Z)-3,7-dimethylocta-2,6-dienal oxime (n=2).

With CC(C)=CCC/C(C)=C/C=N/O [(1E/Z,2E/Z)-3,7-dimethylocta-2,6-dienal oxime] the “melanogenesis rate (measured as 14C-tyrosine incorporation) based on the untreated control (=100%), X transverse” value (shortened to “melanogenesis rate … (=100%), X transverse”) (0.01 μg/ml, n=2) was 117%, the “melanogenesis rate … (=100%), X transverse” value (0.1 μg/ml, n=2) was 130% and the “melanogenesis rate … (=100%), X transverse” value (1 μg/ml, n=2) was 131%.
CC(C)=CCC/C(C)=C/C=O [(2E/Z)-3,7-dimethylocta-2,6-dienal] was tested, and the “melanogenesis rate … (=100%), X transverse” value (0.001 μg/ml, n=2-6) was 127% and the “melanogenesis rate … (=100%), X transverse” value (0.01 μg/ml, n=2-6) was 137%.
In the case of CC(C)=CCC/C(C)=C/CC/C(C)=C/C=O [(2E/Z,6E/Z)-3,7,11-trimethyldodeca-2,6,10-trienal], the “melanogenesis rate … (=100%), X transverse” value (0.1 μg/ml (first column so headed), n=3) is reported as 128%, the “melanogenesis rate … (=100%), X transverse” value (0.1 μg/ml (second column so headed), n=3) is reported as 121% and the “melanogenesis rate … (=100%), X transverse” value (1 μg/ml, n=3) is reported as 217%.
In the case of CCCC/N=C/C=C(\C)CCC=C(C)C [N-[(1E/Z,2E/Z)-3,7-dimethylocta-2,6-dien-1-ylidene]butane-1-amine], the “melanogenesis rate … (=100%), X transverse” value (0.1 μg/ml, n=2) is reported as 113% and the “melanogenesis rate … (=100%), X transverse” value (1 μg/ml, n=2) is reported as 135%.
